Results published in patent US4826975A, “Fused cycloaliphatic aminoalcohols” (Maggioni-Winthrop S.P.A., priority 1986, dated 1989).

Tests used:
SHR = test: anti-hypertensive activity in spontaneously hypertensive (SH) rats, tail artery plethysmography; details: 15 mg/kg po
DOCA rats = type: in vivo, rat; details: 15 mg/kg po
Method: Changes in blood pressure (mm Hg) before (T=O) and after treatment (2, 4 and 6 hrs) were measured according to the method of tail artery plethysmography reported in "Spontaneously hypertensive rats (SHR), guidelines for breeding, care and use", SHR Conference, 1976, page 11.
The heart rate was also […] (BP Recorder No. 8006 supplied by Basile, Comerio, Italy). The arterial pressure before the treatment was 210±10 mmHg in SHR and 200±10 in DOCA rats.

[1] = oral acute toxicity in male mice; details: mouse, in vivo
Method: The oral acute toxicity in male mice of the invention compound is very low. […]; and higher than 2,000 mg/kg for MG 38005, MG 28401, MG 28414 and MG 28427.

toxic adrenaline doses = test: animal or person; type: in vivo, mice; details: Mus musculus, po; 2 hrs before 14.5 mg/kg 1-adrenaline i.p., mortality after 24 hrs; read-out: DP50 (50% protective dose)
platelet aggregation = test: effect on collagen-stimulated platelet aggregation, ex vivo; type: in vivo; details: Rattus norvegicus, 0.15 mM/kg oral, 1 hr, collagen 2-4 mcg/ml, read-out: % inhibition, Aggregation rate
Method: The effect on platelet aggregation was tested ex vivo according to the method of Minsker, (J. Pharmacol. Exp. Ther. 210, 37, 1979) slightly modified. Groups of 3 rats (280-350 g) were treated orally with vehicle (controls) and compounds (0.15 mM/kg). Blood was collected and pooled from rats of each group 1 hr after treatment and the platelet rich plasma (PRP) was separated by centrifugation.
Platelet aggregation was stimulated with collagen (2-4-mcg/ml) added simultaneously to PRP of control and treated rats. The results were assessed photometrically. Each test was replicated 4 times in groups of 3 animals. Aggregation curves were evaluated in terms of two parameters namely maximum optical density variation (maximum aggregation) and aggregation rate.

gasping time in mice = test: anti-hypoxic activity, gasping time after decapitation; type: in vivo
Method: The anti-hypoxic activity was determined according to Yasuda et al., Arch. Int. Pharmacodyn. 233, 136, 1978.
Groups of 10 male mice (21-23 g) were treated orally with vehicle (controls) and the invention compounds. After 45 or 90 minutes the animals were decapitated and the gasping time was determined. Table 6 gives the results obtained after administration of some of the invention compounds which display an activity higher than Suloctidil.

Normolipemic rats = test: hypolipemic activity in normolipemic rats (serum lipids, liver weight); type: in vivo, rat
Method: Total cholesterol (CHOL), triglycerides (TG), HDL cholesterol CHOL-HDL) were assayed in serum and the liver was weighed.

[2] = 100 mg/kg p.o., pretreatment 45 min.
[3] = 100 mg/kg p.o., pretreatment 90 min.

COc1cc2c(c(OC)c1OC)CC(N1CCC(n3c(=O)[nH]c4ccccc43)CC1)C2=O (stereo not drawn) [MG 38005, 2-[4-(2-oxo-1-benzimidazolinyl)-1-piperidinyl]-4,5,6-trimethoxy-1-indanone]
Max. changes in systolic pressure (SHR): -42 mmHg | Max. changes in systolic pressure (DOCA rats): -27 mmHg | LD50 [1]: > 2000 mg/kg

COc1cc2c(c(OC)c1OC)C[C@@H](N1CCC(n3c(=O)[nH]c4cc(Cl)ccc43)CC1)[C@H]2O (relative stereo) [MG 38119, cis-2-[4-(2-Oxo-5-chloro-1-benzimidazolinyl)-1-piperidinyl]-4,5,6-trimethoxy-1-indanol]
ED50 (toxic adrenaline doses): 4.4 mg/kg

CCCCCCCCNC(C)C(O)c1ccc(SC(C)C)cc1 (stereo not drawn) [Suloctidil, reference compound]
inhibition at 0.15 mmol/kg (platelet aggregation): 57.5% | Gasping time, % diff. from control (gasping time in mice; [2]): +27.5% | Gasping time, % diff. from control (gasping time in mice; [3]): +11.7%

Fc1ccc(C(c2ccc(F)cc2)N2CCN(C/C=C/c3ccccc3)CC2)cc1 [Flunarizine, reference compound]
Gasping time, % diff. from control (gasping time in mice; 50 mg/kg p.o., pretreatment 90 min.): +68.7%

CCCCCCCCN[C@H]1Cc2cc(OC)c(OC)cc2[C@@H]1O (relative stereo) [MG 28400, trans 5,6-Dimethoxy-2-(n-octylamino)-1-indanol]
Gasping time, % diff. from control (gasping time in mice; [2]): +53.8% | LD50 [1]: > 500 mg/kg

COc1cc2c(c(OC)c1OC)CC[C@H](N1CCC(n3c(=O)[nH]c4ccccc43)CC1)[C@H]2O (relative stereo) [MG 38028, trans 2-[4-(2-Oxo-1-benzimidazolidinilyl)-1-piperidinyl]-5,6,7-trimethoxy-1-tetralol]
ED50 (toxic adrenaline doses): 0.73 mg/kg

COc1cc2c(c(OC)c1OC)CC[C@H](N1CCC(n3c(=O)[nH]c4cc(Cl)ccc43)CC1)[C@H]2O (relative stereo) [MG 16456, trans-2-[4(2-Oxo-5-chloro-1-benzimidazolinyl)-1-piperidinyl]-5,6,7-trimethoxy-1-tetralol]
ED50 (toxic adrenaline doses): 1.85 mg/kg | Gasping time, % diff. from control (gasping time in mice; [3]): +36.3%

COc1cc2c(cc1OC)[C@H](O)[C@H](N1CCC(n3c(=O)[nH]c4cc(Cl)ccc43)CC1)C2 (relative stereo) [MG 38121, cis 2-[4-(2-Oxo-5-chloro-1-benzimidazolinyl)-1-piperidinyl]-5,6-dimethoxy-1-indanol]
ED50 (toxic adrenaline doses): 2.75 mg/kg

COc1cc2nc(N3CCN(C(=O)c4ccco4)CC3)nc(N)c2cc1OC [Prazosin, reference compound]
ED50 (toxic adrenaline doses): 0.7 mg/kg

CCCCCCCCN[C@@H]1Cc2c(cc(OC)c(OC)c2OC)[C@H]1O (relative stereo) [MG 38006, trans 2-(n-Octylamino)-4,5,6-trimethoxy-1-indanol]
Gasping time, % diff. from control (gasping time in mice; [2]): +33.2% | LD50 [1]: > 1000 mg/kg

COc1cc2c(c(OC)c1OC)C[C@H](N1CCC(NC(=O)c3ccccc3)CC1)[C@@H]2O (relative stereo) [MG 38107, cis-2-(4-Benzamido-1-piperidinyl)-4,5,6-trimethoxy-1-indanol]
ED50 (toxic adrenaline doses): 2.45 mg/kg | CHOL, % difference from control (Normolipemic rats; 0.185 mM/kg po × 4 days): -35.7% | CHOL-HDL, % difference from control (Normolipemic rats; 0.185 mM/kg po × 4 days): -8.5% | Liver weight, % difference from control (Normolipemic rats; 0.185 mM/kg po × 4 days): +5.6% | TG, % difference from control (Normolipemic rats; 0.185 mM/kg po × 4 days): -50.9% | CHOL, % difference from control (Normolipemic rats; 0.370 mM/kg po × 4 days): -30.7% | CHOL-HDL, % difference from control (Normolipemic rats; 0.370 mM/kg po × 4 days): -26.3% | Liver weight, % difference from control (Normolipemic rats; 0.370 mM/kg po × 4 days): 0% | TG, % difference from control (Normolipemic rats; 0.370 mM/kg po × 4 days): -58.5% | hypolipemic effect / activity (in words) (Normolipemic rats; oral): higher than with Clofibrate | effect on CHOL and TG (in words) (Normolipemic rats; oral, 4 days): marked decrease both of CHOL and TG | LD50 [1]: > 1000 mg/kg

COc1cc2c(cc1OC)[C@@H](O)[C@@H](N1CCN(c3ccccc3OC)CC1)C2 (relative stereo) [MG 38100, cis-2-[4-(2-Methoxyphenyl)-1-piperazinyl]-5,6-dimethoxy-1-indanol]
ED50 (toxic adrenaline doses): 8.5 mg/kg | Gasping time, % diff. from control (gasping time in mice; [2]): +95.7% | LD50 [1]: > 500 mg/kg

COc1cc2c(cc1OC)[C@@H](O)[C@@H](N1CCC(NC(=O)c3ccccc3)CC1)C2 (relative stereo) [MG 38112, cis 2-(4-Benzamido-1-piperidinyl)-5,6-dimethoxy-1-indanol]
Max. changes in systolic pressure (SHR): -35 mmHg | ED50 (toxic adrenaline doses): 4.4 mg/kg | Max. changes in systolic pressure (DOCA rats): -19 mmHg | CHOL, % difference from control (Normolipemic rats; 0.185 mM/kg po × 4 days): -45.2% | CHOL-HDL, % difference from control (Normolipemic rats; 0.185 mM/kg po × 4 days): -18.6% | Liver weight, % difference from control (Normolipemic rats; 0.185 mM/kg po × 4 days): 0% | TG, % difference from control (Normolipemic rats; 0.185 mM/kg po × 4 days): -41.8% | CHOL, % difference from control (Normolipemic rats; 0.370 mM/kg po × 4 days): -52.7% | CHOL-HDL, % difference from control (Normolipemic rats; 0.370 mM/kg po × 4 days): -21.4% | Liver weight, % difference from control (Normolipemic rats; 0.370 mM/kg po × 4 days): +3.9% | TG, % difference from control (Normolipemic rats; 0.370 mM/kg po × 4 days): -58.9% | hypolipemic effect / activity (in words) (Normolipemic rats; oral): higher than with Clofibrate | effect on CHOL and TG (in words) (Normolipemic rats; oral, 4 days): marked decrease both of CHOL and TG | LD50 [1]: > 1000 mg/kg

CC(C)(Sc1cc(C(C)(C)C)c(O)c(C(C)(C)C)c1)Sc1cc(C(C)(C)C)c(O)c(C(C)(C)C)c1 [Probucol, reference compound]
CHOL, % difference from control (Normolipemic rats; 0.205 mM/kg po × 8 days): -25.0% | CHOL-HDL, % difference from control (Normolipemic rats; 0.205 mM/kg po × 8 days): -26% | Liver weight, % difference from control (Normolipemic rats; 0.205 mM/kg po × 8 days): +4% | TG, % difference from control (Normolipemic rats; 0.205 mM/kg po × 8 days): -28.0% | CHOL, % difference from control (Normolipemic rats; 0.820 mM/kg po × 4 days): ~ 0% | CHOL-HDL, % difference from control (Normolipemic rats; 0.820 mM/kg po × 4 days): +18.5% | Liver weight, % difference from control (Normolipemic rats; 0.820 mM/kg po × 4 days): ~ 0% | TG, % difference from control (Normolipemic rats; 0.820 mM/kg po × 4 days): ~ 0% | hypolipemic effect / activity (in words) (Normolipemic rats; oral): moderate and is noted only after prolonged treatment (8 days)

COc1cc2c(cc1OC)[C@@H](O)[C@H](N1CCN(C(=O)C=Cc3ccccc3)CC1)C2 (relative stereo) [MG 28414, trans 2-[4-(1-Oxo-3-phenyl-2-propenyl)-1-piperazinyl]-5,6-dimethoxy-1-indanol]
inhibition at 0.15 mmol/kg (platelet aggregation): 58% | LD50 [1]: > 2000 mg/kg

Cc1ccc(N(CC2=NCCN2)c2cccc(O)c2)cc1 [Phentolamine, reference compound]
ED50 (toxic adrenaline doses): 8 mg/kg

COc1cc2c(cc1OC)[C@H](O)[C@@H](N1CCC(n3c(=O)[nH]c4cc(Cl)ccc43)CC1)C2 (relative stereo) [MG 38131, trans-2-[4-(2-Oxo-5-chloro-1-benzimidazolinyl)-1-piperidinyl]-5,6-dimethoxy-1-indanol]
CHOL, % difference from control (Normolipemic rats; 0.370 mM/kg po × 4 days): ~ 0% | CHOL-HDL, % difference from control (Normolipemic rats; 0.370 mM/kg po × 4 days): +57.2% | Liver weight, % difference from control (Normolipemic rats; 0.370 mM/kg po × 4 days): +6.9% | TG, % difference from control (Normolipemic rats; 0.370 mM/kg po × 4 days): -41.4%

COc1cc2c(cc1OC)C(=O)C(N1CCC(NC(=O)c3ccccc3)CC1)C2 (stereo not drawn) [MG 38128]
CHOL, % difference from control (Normolipemic rats; 0.370 mM/kg po × 4 days): ~ 0% | CHOL-HDL, % difference from control (Normolipemic rats; 0.370 mM/kg po × 4 days): +46.8% | Liver weight, % difference from control (Normolipemic rats; 0.370 mM/kg po × 4 days): +8.6% | TG, % difference from control (Normolipemic rats; 0.370 mM/kg po × 4 days): -38.8% | effect on TG and CHOL-HDL (in words) (Normolipemic rats; oral, 4 days): decrease TG and increase CHOL-HDL

COc1cc2c(c(OC)c1OC)C[C@H](N1CCC(n3c(=O)[nH]c4cc(Cl)ccc43)CC1)[C@H]2O (relative stereo) [MG 38122, trans-2-[4-(2-Oxo-5-chloro-1-benzimidazolinyl)-1-piperidinyl]-4,5,6-trimethoxy-1-indanol]
Max. changes in systolic pressure (SHR): -41.9 mmHg | Max. changes in systolic pressure (DOCA rats): -28 mmHg
